Laboratory results: patent US12521353B1, “Encapsulated resveratrol (RSV) nanoparticles” (priority 2024, dated 2026)
Entries after “also recorded” stand apart in the source; their conditions may differ.

What was measured:
Format in all cases: in vivo
[1] = test system: Bax; assay: IHC assay of apoptosis-related factor Bax in testis of rats exposed to ZEA; conditions: rat testis
Source text: (§1) As described herein, the therapeutic efficacy of the encapsulated RSV nanoparticles can be evaluated based on immunohistochemical assessment of apoptosis-related factors (Bax and Bcl-2) in the testis and the gene expression of constitutive androstane receptor (CAR), a well-known xenobiotic-sensing nuclear receptor in the liver, of rats exposed to a fungal mycotoxin, zearalenone (ZEA). The encapsulated RSV nanoparticles reversed the toxic effects of the mycotoxin, as reflected by intense Bcl-2 immunoreactivity and negligible Bax immunoreactivity. Further, the expression of the CAR gene was enhanced by treatment with the present RSV nanoparticles.
(§2) IHC assay was conducted to estimate the toxic impact of ZEA and the ameliorative effect of RSV and its nano-formulation on the expression of apoptosis-related factors (Bax and Bcl-2).

[2] = test system: Bcl-2; assay: IHC assay of apoptosis-related factor Bcl-2 in testis of rats exposed to ZEA; conditions: rat testis
Source text: as §1
(§3) Testes sections stained immunohistochemically against Bcl-2 was noticeably higher (brown color) in control group that received distilled water (FIG. 5A), compared with the group that received 0.1 mg/kg of ZEA that have almost no Bcl-2 immunoreactivity (FIG. 5B). […] High Bcl-2 immunoreactivity was detected in the groups that received 10 mg/kg RSV or 10 mg/kg RSV NPs (FIGS. 5E and 5F).

[3] = test system: apoptosis-related factors (Bax and Bcl-2); assay: Overall immunohistochemical assessment of apoptosis-related factors (Bax and Bcl-2), mycotoxin-induced apoptosis in rat testis; conditions: testis of rats exposed to ZEA and treated
Source text: as §1, §2
as §3, with “5F). […]” for “5F).”

[4] = 0.1 mg/kg ZEA + 10 mg/kg treatment
[5] = 10 mg/kg alone, no ZEA, 10 mg/kg

Row | SMILES | Bax immunoreactivity [1, 4] | Bax immunoreactivity [1, 5] | Bcl-2 immunoreactivity [2, 4] | Bcl-2 immunoreactivity [2, 5] | effect on apoptosis induced by the mycotoxin (expression of Bax and Bcl-2 factors) [3] | Bax immunoreactivity ([1]; 0.1 mg/kg ZEA alone) | Bcl-2 immunoreactivity ([2]; 0.1 mg/kg ZEA alone, 0.1 mg/kg)
1 | Oc1ccc(C=Cc2cc(O)cc(O)c2)cc1 [RSV, Resveratrol] | moderate to low | negative; also recorded: Almost no | moderate | intense and High | effectively reduced | – | –
2 | C[C@H]1CCCC(=O)CCC/C=C/c2cc(O)cc(O)c2C(=O)O1 [ZEA, zearalenone] | – | – | – | – | – | intense | weak and almost no
